Experimental data as given in PubChem BioAssay (NCI).
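In this assay, cells in 96-well plates receive the compound at five concentrations for 48 hours. Endpoints are linearly interpolated between the surrounding concentrations. At the TGI there is no net growth.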

What was measured:
Assay in all cases: NCI-60 cell line screen, 48 h
[1] = test system: HCT-116 colon
[2] = test system: OVCAR-3 ovarian
[3] = test system: HOP-62 NSCLC
[4] = test system: SK-MEL-2 melanoma
[5] = test system: MCF7 breast
[6] = test system: OVCAR-8 ovarian
[7] = test system: SW-620 colon
[8] = test system: SN12C renal
[9] = test system: LOX IMVI melanoma
[10] = test system: A498 renal
[11] = test system: UACC-257 melanoma
[12] = test system: UACC-62 melanoma
[13] = test system: OVCAR-5 ovarian
[14] = test system: K-562 leukemia
[15] = test system: SR leukemia
[16] = test system: NCI-H23 lung
[17] = test system: KM12 colon
[18] = test system: SF-295 CNS
[19] = test system: HS 578T breast
[20] = test system: HL-60(TB) leukemia
[21] = test system: ACHN renal
[22] = test system: NCI/ADR-RES ovarian
[23] = test system: SF-268 CNS
[24] = test system: COLO 205 colon
[25] = test system: MDA-MB-435
[26] = test system: TK-10 renal
[27] = test system: RXF 393 renal
[28] = test system: NCI-H226 lung
[29] = test system: RPMI-8226 leukemia
[30] = test system: T-47D breast
[31] = test system: HOP-92 NSCLC
[32] = test system: CCRF-CEM leukemia
[33] = test system: DU-145 prostate
[34] = test system: NCI-H522 lung
[35] = test system: HT29 colon
[36] = test system: MALME-3M melanoma
[37] = test system: MDA-N
[38] = test system: SF-539 CNS
[39] = test system: UO-31 renal
[40] = test system: CAKI-1 renal
[41] = test system: IGROV1 ovarian
[42] = test system: SK-MEL-5 melanoma
[43] = test system: MDA-MB-231 breast
[44] = test system: PC-3 prostate
[45] = test system: 786-0 renal
[46] = test system: HCT-15 colon
[47] = test system: M14 melanoma
[48] = test system: EKVX NSCLC
[49] = test system: BT-549 breast
[50] = test system: U251 CNS
[51] = test system: OVCAR-4 ovarian
[52] = test system: SK-MEL-28 melanoma
[53] = test system: MOLT-4 leukemia
[54] = test system: NCI-H460 lung
[55] = test system: SNB-19 CNS
[56] = test system: SK-OV-3 ovarian
[57] = test system: A549 NSCLC
[58] = test system: SNB-75 CNS
[59] = test system: HCC-2998 colon

**Q.** What does the source list for O=C(O)c1ccc(CNCc2ccccc2)cc1?
**A.** TGI [1]: > 100 µM; TGI [2]: > 100 µM; TGI [3]: > 100 µM; TGI [4]: > 100 µM; TGI [5]: > 100 µM; TGI [6]: > 100 µM; TGI [7]: > 100 µM; TGI [8]: > 100 µM; TGI [9]: > 100 µM; TGI [10]: > 100 µM; TGI [11]: > 100 µM; TGI [12]: > 100 µM; TGI [13]: > 100 µM; TGI [14]: > 100 µM; TGI [15]: > 100 µM; TGI [16]: > 100 µM; TGI [17]: > 100 µM; TGI [18]: > 100 µM; TGI [19]: > 100 µM; TGI [20]: > 100 µM; TGI [21]: > 100 µM; TGI [22]: > 100 µM; TGI [23]: > 100 µM; TGI [24]: > 100 µM; TGI [25]: > 100 µM; TGI [26]: > 100 µM; TGI [27]: > 100 µM; TGI [28]: > 100 µM; TGI [29]: > 100 µM; TGI [30]: > 100 µM; TGI [31]: > 100 µM; TGI [32]: > 100 µM; TGI [33]: > 100 µM; TGI [34]: > 100 µM; TGI [35]: > 100 µM; TGI [36]: > 100 µM; TGI [37]: > 100 µM; TGI [38]: > 100 µM; TGI [39]: > 100 µM; TGI [40]: > 100 µM; TGI [41]: > 100 µM; TGI [42]: > 100 µM; TGI [43]: > 100 µM; TGI [44]: > 100 µM; TGI [45]: > 100 µM; TGI [46]: > 100 µM; TGI [47]: > 100 µM; TGI [48]: > 100 µM; TGI [49]: > 100 µM; TGI [50]: > 100 µM; TGI [51]: > 100 µM; TGI [52]: > 100 µM; TGI [53]: > 100 µM; TGI [54]: > 100 µM; TGI [55]: > 100 µM; TGI [56]: > 100 µM; TGI [57]: > 100 µM

**Q.** Which TGI [1] does the source give for CCOc1c(OC)cc(-c2nc3n(n2)C(=O)C(CC)S3)cc1OC (centres undefined) here?
**A.** > 10 µM

**Q.** And the TGI [2]?
**A.** > 10 µM

**Q.** What about the TGI [3] of the same compound?
**A.** > 10 µM

**Q.** And the TGI [4]?
**A.** > 10 µM

**Q.** And the TGI [5]?
**A.** > 10 µM

**Q.** What about the TGI [6] of the same compound?
**A.** > 10 µM

**Q.** And the TGI [7]?
**A.** > 10 µM

**Q.** What about the TGI [8] of the same compound?
**A.** > 10 µM

**Q.** And the TGI [9]?
**A.** > 10 µM

**Q.** What about the TGI [10] of the same compound?
**A.** > 10 µM

**Q.** What about the TGI [11] of the same compound?
**A.** > 10 µM

**Q.** And the TGI [12]?
**A.** > 10 µM

**Q.** And the TGI [13]?
**A.** > 10 µM

**Q.** And the TGI [14]?
**A.** > 10 µM

**Q.** And the TGI [15]?
**A.** > 10 µM

**Q.** What about the TGI [16] of the same compound?
**A.** > 10 µM

**Q.** What about the TGI [17] of the same compound?
**A.** > 10 µM

**Q.** What about the TGI [18] of the same compound?
**A.** > 10 µM

**Q.** What about the TGI [19] of the same compound?
**A.** > 10 µM

**Q.** What about the TGI [20] of the same compound?
**A.** > 10 µM

**Q.** What about the TGI [21] of the same compound?
**A.** > 10 µM

**Q.** And the TGI [22]?
**A.** > 10 µM

**Q.** And the TGI [23]?
**A.** > 10 µM

**Q.** What about the TGI [24] of the same compound?
**A.** > 10 µM

**Q.** What about the TGI [25] of the same compound?
**A.** > 10 µM

**Q.** What about the TGI [26] of the same compound?
**A.** > 10 µM

**Q.** What about the TGI [27] of the same compound?
**A.** > 10 µM

**Q.** What about the TGI [28] of the same compound?
**A.** > 10 µM

**Q.** And the TGI [29]?
**A.** > 10 µM

**Q.** And the TGI [30]?
**A.** > 10 µM

**Q.** And the TGI [32]?
**A.** > 10 µM

**Q.** What about the TGI [33] of the same compound?
**A.** > 10 µM

**Q.** What about the TGI [34] of the same compound?
**A.** > 10 µM

**Q.** What about the TGI [35] of the same compound?
**A.** > 10 µM

**Q.** What about the TGI [58] of the same compound?
**A.** > 10 µM

**Q.** And the TGI [36]?
**A.** > 10 µM

**Q.** What about the TGI [37] of the same compound?
**A.** > 10 µM

**Q.** And the TGI [38]?
**A.** > 10 µM

**Q.** And the TGI [59]?
**A.** > 10 µM

**Q.** What about the TGI [40] of the same compound?
**A.** > 10 µM

**Q.** And the TGI [41]?
**A.** > 10 µM

**Q.** And the TGI [42]?
**A.** > 10 µM

**Q.** And the TGI [43]?
**A.** > 10 µM

**Q.** What about the TGI [44] of the same compound?
**A.** > 10 µM

**Q.** And the TGI [45]?
**A.** > 10 µM

**Q.** What about the TGI [46] of the same compound?
**A.** > 10 µM

**Q.** What about the TGI [47] of the same compound?
**A.** > 10 µM

**Q.** And the TGI [48]?
**A.** > 10 µM

**Q.** What about the TGI [49] of the same compound?
**A.** > 10 µM

**Q.** What about the TGI [50] of the same compound?
**A.** > 10 µM

**Q.** What about the TGI [51] of the same compound?
**A.** > 10 µM

**Q.** And the TGI [52]?
**A.** > 10 µM

**Q.** What about the TGI [53] of the same compound?
**A.** > 10 µM

**Q.** What about the TGI [54] of the same compound?
**A.** > 10 µM

**Q.** What about the TGI [55] of the same compound?
**A.** > 10 µM

**Q.** What about the TGI [56] of the same compound?
**A.** > 10 µM

**Q.** What about the TGI [57] of the same compound?
**A.** > 10 µM
